Test results taken from PubChem BioAssay AID328 (DTP/NCI, 2004).
Toxic doses and inconclusive results are not listed.

Tested on: BDF1 mice, P388 leukemia ip, median survival T/C
Experiment: NCI In Vivo Anticancer Drug Screen. Data for tumor model P388 Leukemia (intraperitoneal) in B6D2F1 (BDF1) mice
Settings: endpoint: median survival time, higher = longer survival
Method in brief: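 Mice carrying the transplantable tumour receive compound or vehicle. Survival is followed in each arm, and the treated measure is divided by the vehicle measure.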

[1] = dose: 12.5 mg/kg/injection, schedule: Q01DX009 (ip), vehicle: saline
[2] = dose: 100.0 mg/kg/injection, schedule: Q01DX009 (ip), vehicle: saline with Tween-80
[3] = dose: 200.0 mg/kg/injection, schedule: Q01DX009 (ip), vehicle: saline with Tween-80
[4] = dose: 12.5 mg/kg/injection, schedule: Q01DX009 (ip), vehicle: saline with Tween-80
[5] = dose: 50.0 mg/kg/injection, schedule: Q01DX009 (ip), vehicle: saline

For O=C(/C=C\c1ccccc1)/C=C/c1ccccc1, the T/C (dose: 100.0 mg/kg/injection, schedule: Q04DX003 (sc), vehicle: olive oil, sesame oil, peanut oil) was 100 % of control, the T/C (dose: 200.0 mg/kg/injection, schedule: Q04DX003 (sc), vehicle: olive oil, sesame oil, peanut oil) was 100 % of control and the T/C (dose: 400.0 mg/kg/injection, schedule: Q04DX003 (sc), vehicle: olive oil, sesame oil, peanut oil) was 100 % of control.
For CCCCCCCCC[N+]12CC[N+](CCCCCCCCC)(CC1)CC2, the T/C (dose: 3.13 mg/kg/injection, schedule: Q01DX009 (ip), vehicle: saline) was 101 % of control, the T/C (dose: 6.25 mg/kg/injection, schedule: Q01DX009 (ip), vehicle: saline) was 97 % of control and the T/C [1] was 98 % of control.
For COc1cc([C@@H]2c3cc4c(cc3C[C@H]3COC(=O)[C@@H]32)OCO4)cc(OC)c1OC, the T/C (dose: 1.25 mg/kg/injection, schedule: Q01DX010 (ip), vehicle: saline) was 109 % of control, the T/C (dose: 2.5 mg/kg/injection, schedule: Q01DX001 (ip), vehicle: other) was 105 % of control and the T/C (dose: 2.5 mg/kg/injection, schedule: Q01DX010 (ip), vehicle: saline) was 118 % of control. The T/C (dose: 5.0 mg/kg/injection, schedule: Q01DX001 (ip), vehicle: other) was 115 % of control, the T/C (dose: 10.0 mg/kg/injection, schedule: Q01DX010 (ip), vehicle: other) was 154 % of control and the T/C (dose: 20.0 mg/kg/injection, schedule: Q01DX010 (ip), vehicle: other) was 95 % of control.
For CSC(=S)NNC(=O)c1cccc([N+](=O)[O-])c1, the T/C (dose: 6.25 mg/kg/injection, schedule: Q04DX003 (ip), vehicle: saline sonified) was 110 % of control, the T/C (dose: 12.5 mg/kg/injection, schedule: Q04DX003 (ip), vehicle: saline sonified) was 105 % of control and the T/C (dose: 25.0 mg/kg/injection, schedule: Q04DX003 (ip), vehicle: saline sonified) was 100 % of control.
S=C(S)Nc1cccc2ccccc12 was tested, and the T/C [2] was 100 % of control, the T/C (dose: 100.0 mg/kg/injection, schedule: Q04DX003 (ip), vehicle: saline with Tween-80) was 90 % of control and the T/C [3] was 100 % of control. The T/C (dose: 200.0 mg/kg/injection, schedule: Q04DX003 (ip), vehicle: saline with Tween-80) was 109 % of control, the T/C (dose: 400.0 mg/kg/injection, schedule: Q01DX009 (ip), vehicle: saline with Tween-80) was 105 % of control and the T/C (dose: 400.0 mg/kg/injection, schedule: Q04DX003 (ip), vehicle: saline with Tween-80) was 95 % of control.
c1cc2c(cc1CNC1=NCCO1)OCO2 was tested, and the T/C (dose: 100.0 mg/kg/injection, schedule: Q01DX001 (ip), vehicle: saline with Tween-80) was 100 % of control, the T/C (dose: 200.0 mg/kg/injection, schedule: Q01DX001 (ip), vehicle: saline with Tween-80) was 95 % of control and the T/C (dose: 400.0 mg/kg/injection, schedule: Q01DX001 (ip), vehicle: saline with Tween-80) was 118 % of control.
CNC(=O)c1ccc(NC(=O)Nc2cccc(C3=NCCN3)c2)cc1NC(=O)Nc1cccc(C2=NCCN2)c1 was tested, and the T/C (dose: 30.0 mg/kg/injection, schedule: Q01DX009 (ip), vehicle: saline with Tween-80) was 162 % of control.
With CN(CCS)C(=N)N the T/C (dose: 3.13 mg/kg/injection, schedule: Q01DX009 (ip), vehicle: saline with Tween-80) was 112 % of control, the T/C (dose: 6.25 mg/kg/injection, schedule: Q01DX009 (ip), vehicle: saline with Tween-80) was 99 % of control and the T/C [4] was 111 % of control. For the same compound, the T/C (dose: 25.0 mg/kg/injection, schedule: Q01DX009 (ip), vehicle: saline with Tween-80) was 104 % of control.
With CNc1ccc([N+](=O)[O-])cc1C(=O)OC the T/C [2] was 104 % of control and the T/C [3] was 96 % of control.
With O=S(=O)(O)O the T/C (dose: 6.25 mg/kg/injection, schedule: Q01DX009 (ip), vehicle: water) was 90 % of control, the T/C [4] was 124 % of control and the T/C (dose: 12.5 mg/kg/injection, schedule: Q01DX009 (ip), vehicle: water) was 100 % of control. The T/C (dose: 25.0 mg/kg/injection, schedule: Q04DX003 (ip), vehicle: water) was 90 % of control and the T/C (dose: 100.0 mg/kg/injection, schedule: Q04DX003 (ip), vehicle: water) was 90 % of control.
In the case of COC(=O)c1cc(-c2ccccc2)[nH]c1-c1ccccc1, the T/C [5] is reported as 92 % of control.
In the case of NN(c1cccc(C(F)(F)F)c1)c1ccccn1, the T/C [1] is reported as 108 % of control, the T/C (dose: 25.0 mg/kg/injection, schedule: Q01DX009 (ip), vehicle: saline) is reported as 106 % of control and the T/C [5] is reported as 115 % of control.
O=C(CC(c1ccccc1)C(C(=O)O)c1ccccc1)c1ccccc1 (configuration not stated) was tested, and the T/C (dose: 50.0 mg/kg/injection, schedule: Q01DX009 (ip), vehicle: Klucel (hydroxypropylcellulose) (HPC)) was 101 % of control and the T/C (dose: 100.0 mg/kg/injection, schedule: Q01DX009 (ip), vehicle: Klucel (hydroxypropylcellulose) (HPC)) was 92 % of control.
